System: 845751-090-R-J2-PDC tumor spheroid viability
Test: Anticancer human tumor 845751-090-R-J2-PDC patient-derived head and neck squamous carcinoma cell line growth inhibition [IpAb]
Conditions: spheroids with HUVEC and MSC; for IC50: curve of first compound; for viability, T/C: stronger effect = lower value
In short: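 Multi-cell spheroids of 60% tumour cells, 25% HUVEC and 15% MSC in ultra-low-attachment U-bottom wells, treated with agents combined with ipatasertib or abemaciclib. Half-log ranges top out near clinical Cmax, or 10 microM when Cmax is unknown.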

[1] = second compound 0.1 µM, first compound 0.0316 µM
[2] = second compound 0.1 µM, first compound 0.1 µM
[3] = second compound 0.1 µM, first compound 0.316 µM
[4] = second compound 0.1 µM, first compound 1 µM
[5] = second compound 0.1 µM, first compound 3.16 µM
[6] = second compound 0.1 µM, first compound 10 µM
[7] = second compound 0.316 µM, first compound 0.0316 µM
[8] = second compound 0.316 µM, first compound 0.1 µM
[9] = second compound 0.316 µM, first compound 0.316 µM
[10] = second compound 0.316 µM, first compound 1 µM
[11] = second compound 0.316 µM, first compound 3.16 µM
[12] = second compound 0.316 µM, first compound 10 µM
[13] = second compound 1 µM, first compound 0.0316 µM
[14] = second compound 1 µM, first compound 0.1 µM
[15] = second compound 1 µM, first compound 0.316 µM
[16] = second compound 1 µM, first compound 1 µM
[17] = second compound 1 µM, first compound 3.16 µM
[18] = second compound 1 µM, first compound 10 µM
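Further: spheroids exposed to compounds for 7 days before readout.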
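Wherever viability, T/C is given: CTG3D luminescence normalised so that 100% = DMSO vehicle control.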

## C=CC(=O)N1CCN(c2nc(=O)n(-c3c(C)ccnc3C(C)C)c3nc(-c4c(O)cccc4F)c(F)cc23)C(C)C1 (stereo not given) + CC(C)NCC(C(=O)N1CCN(c2ncnc3c2C(C)CC3O)CC1)c1ccc(Cl)cc1
Second compound 0.1 µM
  IC50: < 31.6 nM
Second compound 0.316 µM
  IC50: < 31.6 nM
Second compound 1 µM
  IC50: < 31.6 nM
Second compound 3.16 µM
  IC50: < 31.6 nM
Second compound 10 µM
  IC50: < 31.6 nM
[1]
  viability, T/C: 47.1%
[2]
  viability, T/C: 46.7%
[3]
  viability, T/C: 28.9%
[4]
  viability, T/C: 36.3%
[5]
  viability, T/C: 22.1%
[6]
  viability, T/C: 10.7%
[7]
  viability, T/C: 28.2%
[8]
  viability, T/C: 30.3%
[9]
  viability, T/C: 21.2%
[10]
  viability, T/C: 24.9%
[11]
  viability, T/C: 21.9%
[12]
  viability, T/C: 13.8%
[13]
  viability, T/C: 22.9%
[14]
  viability, T/C: 25%
[15]
  viability, T/C: 21.5%
[16]
  viability, T/C: 28.2%
[17]
  viability, T/C: 19.3%
[18]
  viability, T/C: 7.88%
Second compound 3.16 µM, first compound 0.0316 µM
  viability, T/C: 21.7%
Second compound 3.16 µM, first compound 0.1 µM
  viability, T/C: 18.3%
Second compound 3.16 µM, first compound 0.316 µM
  viability, T/C: 22.9%
Second compound 3.16 µM, first compound 1 µM
  viability, T/C: 19.7%
Second compound 3.16 µM, first compound 3.16 µM
  viability, T/C: 11.9%
Second compound 3.16 µM, first compound 10 µM
  viability, T/C: 5.86%
Second compound 10 µM, first compound 0.0316 µM
  viability, T/C: 15.2%
Second compound 10 µM, first compound 0.1 µM
  viability, T/C: 12.3%
Second compound 10 µM, first compound 0.316 µM
  viability, T/C: 12.2%
Second compound 10 µM, first compound 1 µM
  viability, T/C: 12.5%
Second compound 10 µM, first compound 3.16 µM
  viability, T/C: 8.32%
Second compound 10 µM, first compound 10 µM
  viability, T/C: 3.28%

## C=CC(=O)N1CCN(c2nc(=O)n(-c3c(C)ccnc3C(C)C)c3nc(-c4c(O)cccc4F)c(F)cc23)C(C)C1 (stereo not given) + CCN1CCN(Cc2ccc(Nc3ncc(F)c(-c4cc(F)c5nc(C)n(C(C)C)c5c4)n3)nc2)CC1
Second compound 0.01 µM
  IC50: 5850 nM
Second compound 0.0316 µM
  IC50: 2250 nM
Second compound 0.1 µM
  IC50: 1690 nM
Second compound 0.316 µM
  IC50: 1870 nM
Second compound 1 µM
  IC50: 2250 nM
Second compound 0.01 µM, first compound 0.0316 µM
  viability, T/C: 95.2%
Second compound 0.01 µM, first compound 0.1 µM
  viability, T/C: 96.3%
Second compound 0.01 µM, first compound 0.316 µM
  viability, T/C: 102%
Second compound 0.01 µM, first compound 1 µM
  viability, T/C: 82.3%
Second compound 0.01 µM, first compound 3.16 µM
  viability, T/C: 53.7%
Second compound 0.01 µM, first compound 10 µM
  viability, T/C: 46.9%
Second compound 0.0316 µM, first compound 0.0316 µM
  viability, T/C: 64%
Second compound 0.0316 µM, first compound 0.1 µM
  viability, T/C: 84.3%
Second compound 0.0316 µM, first compound 0.316 µM
  viability, T/C: 70.9%
Second compound 0.0316 µM, first compound 1 µM
  viability, T/C: 66%
Second compound 0.0316 µM, first compound 3.16 µM
  viability, T/C: 43.3%
Second compound 0.0316 µM, first compound 10 µM
  viability, T/C: 31.7%
[1]
  viability, T/C: 67.2%
[2]
  viability, T/C: 115%
[3]
  viability, T/C: 74.6%
[4]
  viability, T/C: 56.1%
[5]
  viability, T/C: 46%
[6]
  viability, T/C: 27.2%
[7]
  viability, T/C: 61.5%
[8]
  viability, T/C: 67.9%
[9]
  viability, T/C: 72.5%
[10]
  viability, T/C: 55.7%
[11]
  viability, T/C: 43%
[12]
  viability, T/C: 16.9%
[13]
  viability, T/C: 62.6%
[14]
  viability, T/C: 62.4%
[15]
  viability, T/C: 72.2%
[16]
  viability, T/C: 59.9%
[17]
  viability, T/C: 45.4%
[18]
  viability, T/C: 28.4%

## CC(C)(C)c1cnc(CSc2cnc(NC(=O)C3CCNCC3)s2)o1 + CC(C)NCC(C(=O)N1CCN(c2ncnc3c2C(C)CC3O)CC1)c1ccc(Cl)cc1
Second compound 0.1 µM
  IC50: 30.1 nM
Second compound 0.316 µM
  IC50: < 9.49 nM
Second compound 1 µM
  IC50: < 9.49 nM
Second compound 3.16 µM
  IC50: < 9.49 nM
Second compound 10 µM
  IC50: < 9.49 nM
Second compound 0.1 µM, first compound 0.00949 µM
  viability, T/C: 88.9%
Second compound 0.1 µM, first compound 0.03 µM
  viability, T/C: 50.1%
Second compound 0.1 µM, first compound 0.0949 µM
  viability, T/C: 7.88%
Second compound 0.1 µM, first compound 0.3 µM
  viability, T/C: 0.63%
Second compound 0.1 µM, first compound 0.949 µM
  viability, T/C: 0.78%
Second compound 0.1 µM, first compound 3 µM
  viability, T/C: 0.94%
Second compound 0.316 µM, first compound 0.00949 µM
  viability, T/C: 34.4%
Second compound 0.316 µM, first compound 0.03 µM
  viability, T/C: 40.4%
Second compound 0.316 µM, first compound 0.0949 µM
  viability, T/C: 9.45%
Second compound 0.316 µM, first compound 0.3 µM
  viability, T/C: 0.23%
Second compound 0.316 µM, first compound 0.949 µM
  viability, T/C: 0.27%
Second compound 0.316 µM, first compound 3 µM
  viability, T/C: 0.95%
Second compound 1 µM, first compound 0.00949 µM
  viability, T/C: 27%
Second compound 1 µM, first compound 0.03 µM
  viability, T/C: 28.8%
Second compound 1 µM, first compound 0.0949 µM
  viability, T/C: 10.8%
Second compound 1 µM, first compound 0.3 µM
  viability, T/C: 0.59%
Second compound 1 µM, first compound 0.949 µM
  viability, T/C: 0.34%
Second compound 1 µM, first compound 3 µM
  viability, T/C: 0.55%
Second compound 3.16 µM, first compound 0.00949 µM
  viability, T/C: 27.4%
Second compound 3.16 µM, first compound 0.03 µM
  viability, T/C: 27.7%
Second compound 3.16 µM, first compound 0.0949 µM
  viability, T/C: 9.06%
Second compound 3.16 µM, first compound 0.3 µM
  viability, T/C: 0.29%
Second compound 3.16 µM, first compound 0.949 µM
  viability, T/C: 0.31%
Second compound 3.16 µM, first compound 3 µM
  viability, T/C: 0.87%
Second compound 10 µM, first compound 0.00949 µM
  viability, T/C: 14.1%
Second compound 10 µM, first compound 0.03 µM
  viability, T/C: 12.7%
Second compound 10 µM, first compound 0.0949 µM
  viability, T/C: 3.48%
Second compound 10 µM, first compound 0.3 µM
  viability, T/C: 1.09%
Second compound 10 µM, first compound 0.949 µM
  viability, T/C: 0.27%
Second compound 10 µM, first compound 3 µM
  viability, T/C: 1.61%

Reference: PubChem BioAssay AID2060333 (Molecular Pharmacology Branch, DTP, NCI, 2025)
